Columns and labels:
[1] = Free Fe2+ after addition of test substance, photometric with 2,2'-Bipyridin; type: physicochemical; conditions: 1 mmol test substance mixed with 1 mmol Fe²⁺
Protocol: (§1) Der Testpuffer (100 mM KCl, 10 mM HEPES, 1 mM EGTA 0,5 mM CaCl₂, pH 7,1) wurden mit je 1 mM der Testsubstanz versetzt. Entstehende Niederschläge wurden abfiltriert. Das Filtrat wurde mit KOH auf pH 7,1 eingestellt und mit 1 µM FURA 2 versetzt. Die Konzentration an Ca²⁺ wurde fluorimetrisch bestimmt (Anregung 340 nm, 359 nm, 380 nm, Emission 510 nm). b) Konzentration an freiem Fe²⁺ nach Zugabe von 1 mmol alpha-Hydroxypalmitinsäure
1 mmol Testsubstanz wurde mit 1 mmol Fe²⁺ versetzt. Entstehende Niederschläge wurden abfiltriert. Die Filtrate wurden mit 2,2'-Bipyridin versetzt und bei 565 nm photometrisch vermessen.

[2] = Free Ca2+ after addition of test substance, fluorimetric with FURA 2; type: physicochemical; conditions: free Ca²⁺ after addition of 1 mmol (1 mM) test substance; pH 7,1; control without fatty acid 200
Protocol: Die erfindungsgemäßen alpha-Hydroxyfettsäuren haben gegenüber Schwermetallionen, z.B. Fe²⁺ oder Erdalkali-Ionen wie Ca²⁺ eine hohe Bindungsfähigkeit, wie die folgende Untersuchung zeigt: a) Konzentration an freiem Ca²⁺ nach Zugabe von 1 mmol Testsubstanz
as §1

Corynebacterium xerosis = assay: Minimal inhibitory concentration; type: cell-based; conditions: 72 h incubation
Protocol: (§2) Bestimmung der minimalen Hemmkonzentration Eine frische Übernachtkultur des Testorganismus wurde 1:10⁴ in Nährmedium (5 g/ltr Tryptone, 3 g/ltr Hefeextrakt, pH 7,0) verdünnt und 3h inkubiert (30° C, 250 rpm). Anschließend wurde alpha-Hydroxy-palmitinsäure (D) in einer Endkonzentration von 2,0%; 1,5%; 1,0%; 0,75%; 0,5%; 0,25%; 0,1% und 0,06% zugegeben. Nach 72 h Inkubationszeit wurden der Bakterientiter durch Verdünnung und Ausplattierung überprüft. Bei den Ansätzen, bei denen keine Bakterien nachweisbar waren, wurde 1 ml des Ansatzes mit 9 ml Nährmedium versetzt und über Nacht inkubiert (30° C, 250 rpm). […]

[3] = system: Acinetobacter calcoaceticus; assay: Minimal inhibitory concentration; type: cell-based; conditions: 72 h incubation
Protocol: as §2

Salmonella livingstone = assay: Minimal inhibitory concentration; type: cell-based; conditions: 72 h incubation
Protocol: as §2

Klebsiella pneumoniae = assay: Minimal inhibitory concentration; type: cell-based; conditions: 72 h incubation
Protocol: as §2

Pseudomonas aeruginosa = assay: Minimal inhibitory concentration; type: cell-based; conditions: 72 h incubation
Protocol: as §2

Pseudomonas putida = assay: Minimal inhibitory concentration; type: cell-based; conditions: 72 h incubation
Protocol: as §2

[4] = system: Staphylococcus epidermidis; assay: Minimal inhibitory concentration; type: cell-based; conditions: 72 h incubation
Protocol: as §2

Escherichia coli = assay: Minimal inhibitory concentration; type: cell-based; conditions: 72 h incubation
Protocol: as §2

Micrococcus luteus = assay: Minimal inhibitory concentration; type: cell-based; conditions: 72 h incubation
Protocol: as §2

Row | Structure (SMILES) | Konz. Fe²⁺ [1] [µmol] | Konz. Ca²⁺ [2] [nmol] | other results
1 | O=C(O)CC(O)(CC(=O)O)C(=O)O [Citronensäure] | 110 | 139 | 
2 | O=C(O)CN(CCN(CC(=O)O)CC(=O)O)CC(=O)O [EDTA] |  | 25 | 
3 | CCCCCCCCCCCCCC(=O)O [Myristinsäure] |  | 233 | 
4 | CCCCCCCCCCCCCC[C@@H](O)C(=O)O [alpha-OH-Hexadecansäure (D), alpha-Hydroxy-hexadecansäure] |  |  | Minimale Hemmkonzentration (Corynebacterium xerosis): 0,10%; Minimale Hemmkonzentration [3]: 0,75%; Minimale Hemmkonzentration (Salmonella livingstone): 0,50%; Minimale Hemmkonzentration (Klebsiella pneumoniae): 0,50%; Minimale Hemmkonzentration (Pseudomonas aeruginosa): 0,25%; Minimale Hemmkonzentration (Pseudomonas putida): 0,10%; Minimale Hemmkonzentration [4]: 0,10%; Minimale Hemmkonzentration (Escherichia coli): 0,50%; Minimale Hemmkonzentration (Micrococcus luteus): 0,25%

The next lines start with results.

Row | Konz. Fe²⁺ [1] [µmol] | Konz. Ca²⁺ [2] [nmol] | Structure (SMILES) | other results
5 | 100 | 200 | O=C(O)C(O)c1ccccc1 (stereo not shown) [Mandelsäure] | 
6 |  | 249 | CCCCCCCCCCCCCCCC(=O)O [Palmitinsäure] | 
7 |  | 32 | CCCCCCCCCCCCC(O)C(=O)O (stereo not drawn) [alpha-Hydroxy-myristinsäure] | 
8 | 20 | 38 | CCCCCCCCCCCCCCC(O)C(=O)O (stereo not drawn) [alpha-Hydroxypalmitinsäure] | 
